A short description of this series: activity coefficient (dimensionless); of the first substance listed, at infinite dilution; xn = mol fraction of the nth substance listed. To be noted: 101 kPa, Liquid, Chromatography, x1 = 0.

Several values for one entry are separate records, joined by “and”; a condition that tells them apart may be missing. Equal entries are not always repeated. Numbers after ± are expanded uncertainties.

We go through 19 compounds from the NIST ThermoML archive (doi:10.1016/j.fluid.2008.10.008).

For `C=CCCCCC` [1-heptene] + CCCC[n+]1ccc(C)cc1.Cc1ccc(S(=O)(=O)[O-])cc1, the activity coefficient by setting is: (328.15 K) 28.7 and 29.2; (333.15 K) 29.5 and 28.2; (338.15 K) 27.2 and 27.9; (343.15 K) 28 and 27.5.

As to `C#CCCCCC` [1-heptyne] + CCCC[n+]1ccc(C)cc1.Cc1ccc(S(=O)(=O)[O-])cc1, the activity coefficient was 5.76 and 5.88 (328.15 K); 6.03 and 5.9 (333.15 K); 6.01 and 5.98 (338.15 K); 6.14 and 6 (343.15 K).

As for `C#CCCCC` [1-hexyne] + CCCC[n+]1ccc(C)cc1.Cc1ccc(S(=O)(=O)[O-])cc1, the activity coefficient is, setting by setting: (328.15 K) 4.25 and 4.19; (333.15 K) 4.43 and 4.26; (338.15 K) 4.37 and 4.61; (343.15 K) 4.8 and 4.36.

Turning to `C#CCCCCCC` [1-octyne] + CCCC[n+]1ccc(C)cc1.Cc1ccc(S(=O)(=O)[O-])cc1, the activity coefficient was 8.01 and 8.11 (328.15 K); 8.45 and 8.13 (333.15 K); 8.27 and 8.18 (338.15 K); 8.56 and 8.3 (343.15 K).

`C=CCCC` [1-pentene] + CCCC[n+]1ccc(C)cc1.Cc1ccc(S(=O)(=O)[O-])cc1: the activity coefficient is, setting by setting: (328.15 K) 16.8 and 15.3; (333.15 K) 16.1 and 14.8; (338.15 K) 15.3 and 15.5; (343.15 K) 15.7 and 14.2.

As to `C#CCCC` [1-pentyne] + CCCC[n+]1ccc(C)cc1.Cc1ccc(S(=O)(=O)[O-])cc1, the activity coefficient (328.15 K) is 3.05 and 3.09; the activity coefficient (333.15 K) was 3.37 and 3.06; the activity coefficient (338.15 K) was 3.36 and 3.2; the activity coefficient (343.15 K) is 3.38 and 3.41.

On to `c1ccccc1` [benzene] + CCCC[n+]1ccc(C)cc1.Cc1ccc(S(=O)(=O)[O-])cc1, for which the activity coefficient is 4.01 ± 0.18 (328.15 K); 3.92 and 4 (333.15 K); 3.97 and 3.95 (338.15 K); 3.94 and 3.97 (343.15 K).

With `C1CCCCCC1` [cycloheptane] + CCCC[n+]1ccc(C)cc1.Cc1ccc(S(=O)(=O)[O-])cc1, the activity coefficient is, setting by setting: (328.15 K) 21.2 and 23.4; (333.15 K) 20.8 ± 1; (338.15 K) 20 ± 0.9; (343.15 K) 19.8 and 19.9.

On to `C1CCCCC1` [cyclohexane] + CCCC[n+]1ccc(C)cc1.Cc1ccc(S(=O)(=O)[O-])cc1, for which the activity coefficient was 18.6 and 20.6 (328.15 K); 18 and 18.1 (333.15 K); 17.5 ± 0.8 (338.15 K); 16.9 and 17 (343.15 K).

Regarding `C1CCCCCCC1` [cyclooctane] + CCCC[n+]1ccc(C)cc1.Cc1ccc(S(=O)(=O)[O-])cc1, the activity coefficient is, setting by setting: (328.15 K) 26.2 and 28.4; (333.15 K) 25.2 and 25; (338.15 K) 23.7 and 24.6; (343.15 K) 23.6 and 24.5.

For the compound `C1CCCC1` [cyclopentane] + CCCC[n+]1ccc(C)cc1.Cc1ccc(S(=O)(=O)[O-])cc1, the activity coefficient is, setting by setting: (328.15 K) 13.6 and 12.5; (333.15 K) 12.4 and 12.8; (338.15 K) 11.7 and 12; (343.15 K) 11.9 and 11.7.

Turning to `CCO` [ethanol] + CCCC[n+]1ccc(C)cc1.Cc1ccc(S(=O)(=O)[O-])cc1, the activity coefficient (328.15 K) is 0.905 and 0.893; the activity coefficient (333.15 K) was 0.895 and 0.881; the activity coefficient (338.15 K) was 0.88 and 0.87; the activity coefficient (343.15 K) is 0.871 and 0.863.

For the compound `CCCCCCC` [heptane] + CCCC[n+]1ccc(C)cc1.Cc1ccc(S(=O)(=O)[O-])cc1, the activity coefficient runs as follows: (328.15 K) 53 and 55; (333.15 K) 51.8 and 51; (338.15 K) 50.6 and 50.4; (343.15 K) 49.3 and 49.5.

As for `C=CCCCC` [hex-1-ene] + CCCC[n+]1ccc(C)cc1.Cc1ccc(S(=O)(=O)[O-])cc1, the activity coefficient (328.15 K) was 21.2 and 21.1; the activity coefficient (333.15 K) is 20.7 and 20.1; the activity coefficient (338.15 K) was 20.3 and 19.5; the activity coefficient (343.15 K) was 20 and 20.1.

On to `CCCCCC` [hexane] + CCCC[n+]1ccc(C)cc1.Cc1ccc(S(=O)(=O)[O-])cc1, for which the activity coefficient is 37.3 and 38.9 (328.15 K); 37.2 ± 1.7 (333.15 K); 36 ± 1.7 (338.15 K); 36.9 and 37.1 (343.15 K).

On to `CO` [methanol] + CCCC[n+]1ccc(C)cc1.Cc1ccc(S(=O)(=O)[O-])cc1, for which the activity coefficient (328.15 K) is 0.555 and 0.542; the activity coefficient (333.15 K) was 0.545 and 0.542; the activity coefficient (338.15 K) was 0.541 and 0.536; the activity coefficient (343.15 K) was 0.548 and 0.527.

As for `C=CCCCCCC` [oct-1-ene] + CCCC[n+]1ccc(C)cc1.Cc1ccc(S(=O)(=O)[O-])cc1, the activity coefficient is 39.7 and 40.6 (328.15 K); 39.7 and 39.2 (333.15 K); 38.7 and 38.9 (338.15 K); 37.8 and 38 (343.15 K).

With `CCCCCCCC` [octane] + CCCC[n+]1ccc(C)cc1.Cc1ccc(S(=O)(=O)[O-])cc1, the activity coefficient is, setting by setting: (328.15 K) 71.6 and 75.8; (333.15 K) 71.3 and 70.6; (338.15 K) 67.8 and 68.4; (343.15 K) 68.7 and 68.9.

As to `CCCCC` [pentane] + CCCC[n+]1ccc(C)cc1.Cc1ccc(S(=O)(=O)[O-])cc1, the activity coefficient was 27.6 and 28.7 (328.15 K); 27.5 and 27.8 (333.15 K); 27.7 and 27.8 (338.15 K); 27.3 and 27.4 (343.15 K).
